Experimental findings from patent publication US20250339402A1, “EFFECTIVE MEANS TO MODULATE NMDA RECEPTOR-MEDIATED TOXICITY” (FUNDAMENTAL PHARMA GMBH, priority 2022, published 2025) are described below.

Molecules are shown by their SMILES. Counter-ions that a name gives are not always drawn.

The first assay relates to Primary mouse hippocampal neurons. As to the kind of experiment: Excitotoxic (glutamate/NMDA-induced) cell death in primary neuronal cultures, protection index. In kind it is cell-based. The settings on record: Mus musculus, Hippocampal neuron; third subset; excitotoxic cell death in primary neuronal cultures. The method, then:
Primary mouse hippocampal neurons were prepared as previously described (Bading & Greenberg, Science, 1991; 253: 912-914; Zhang et al, Neuron, 2007, 53: 549-562) and maintained in Neurobasal-A medium supplemented with 2% B27, 5 mM L-Glutamax, and 0.5% Penicillin/Streptomycin until challenged with NMDA on days in vitro (DIV) 10. Glutamate-induced cell death was analyzed in a real-time manner by monitoring nuclear localized mCherry with IncuCyte® S3 Live-Cell Analysis System (Sartorius AG, Germany). Primary neurons plated in 24 well plates were infected with rAAV-hSyn-mCherry on DIV3 and challenged with 1 μM or 20 μM glutamate on DIV10. All compounds were added to the culture 30 min prior to glutamate/NMDA insult. Images were acquired following the glutamate application for 24 h with a 2 h interval, where 9-16 images were obtained via a 20×objective for each condition at each time point. Cell deaths were quantified by analyzing the existence of nuclear localized mCheery via the Basic Analyzer with Incucyte® 2021 software, size and average intensity were used as exclusion criteria.
In order to evaluate the protective effects of various compounds, a quantification method was developed to determine each compound's protection index. The protection index (from 0.0 to 10.0) was calculated by the area above the curve (AAC) during a 24 h excitotoxic stimuli, where the cell survival was normalized to the 0 h (FIG. 2), following the equation: […]
Where AAC represents for each compound, AACbasal represents for the basal condition without excitotoxic insult, AACVeh represents for the vehicle control with excitotoxic insult. Based on the equation, vehicle (DMSO) has a protection index at 0.0 and compound P401 of WO 2020/079244 has a protection index at 6.0 (at 10 μM).
The inventors also performed experiments with Group A compounds at lower concentration in a 3-fold dilution matter ([…]: 3.0, 1.0, 0.3, 0.1, 0.03) and were able to achieve a similar protection effect as 10 μM compound P401, but at a lower concentration.
`CCC(c1cccc(Br)c1F)N(CCN)C1CC1` (centres unmarked) [Compound 258] yielded a 50% inhibitory concentration (IC50) of 0.013 µM. Still for that read-out and setting: next, `N#Cc1cccc(C(N(CCN)C2CC2)C(F)(F)F)c1F` (centres unmarked) [Compound 261, 3-[1-[2-aminoethyl(cyclopropyl)amino]-2,2,2-trifluoro-ethyl]-2-fluoro-benzonitrile hydrochloride]: 0.109 µM; `NCCN(C1CC1)C(c1cccc(Cl)c1F)C1CCC1` (centres unmarked) [Compound 267, N^1-((3-chloro-2-fluorophenyl)(cyclobutyl)methyl)-N^1-cyclopropylethane-1,2-diamine hydrochloride]: 0.13 µM. On the same count and under the same terms, next, `CC(C)C(c1cccc(C#N)c1F)N(CCN)C1CC1` (centres unmarked) [Compound 264, 3-(1-((2-aminoethyl)(cyclopropyl)amino)-2-methylpropyl)-2-fluorobenzonitrile TFA salt]: 0.003 µM; `CC(c1c(F)ccc(Cl)c1F)N(CCN)C1CC1.Cl` (centres unmarked) [Compound 187]: 2 µM. The same measure, in the same setting: next, `CCC(c1cccc(C#N)c1F)N(CCN)C1CC1` (centres unmarked) [Compound 257, 3-(1-((2-aminoethyl)(cyclopropyl)amino)propyl)-2-fluorobenzonitrile hydrochloride]: 0.011 µM. Molecule `N#Cc1cccc(CN(CCN)C2CC2)c1F` [Compound 219, 3-(((2-aminoethyl)(cyclopropyl)amino)methyl)-2-fluorobenzonitrile hydrochloride] gave a half-maximal inhibitory concentration (IC50) of 0.48 µM. Same read-out and setting: next, `NCCN(C1CC1)C(c1cccc(Cl)c1F)C(F)(F)F` (centres unmarked) [Compound 263, N^1-(1-(3-chloro-2-fluorophenyl)-2,2,2-trifluoroethyl)-N^1-cyclopropylethane-1,2-diamine hydrochloride]: 0.255 µM. Still for that read-out and setting: next, `CC(c1cccc(F)c1Cl)N(CCN)C1CC1` (centres unmarked) [Compound 246]: 0.5 µM; `N#Cc1cccc(C(CC(F)(F)F)N(CCN)C2CC2)c1F` (centres unmarked) [Compound 280, 3-(1-((2-aminoethyl)(cyclopropyl)amino)-3,3,3-trifluoropropyl)-2-fluorobenzonitrile hydrochloride]: 0.036 µM; `NCCN(C1CC1)C(c1cccc(Cl)c1F)C(F)(F)C(F)(F)F` (centres unmarked) [Compound 270, N1-(1-(3-chloro-2-fluorophenyl)-2,2,3,3,3-pentafluoropropyl)-N1-cyclopropylethane-1,2-diamine TFA salt]: 0.013 µM. The same measure, in the same setting: for `CC(c1cccc(Br)c1F)N(CCN)C1CC1` (centres unmarked) [Compound 191, N^1-(1-(3-bromo-2-fluorophenyl)ethyl)-N^1-cyclopropylethane-1,2-diamine hydrochloride] the value was 0.23 µM. `CC(C)C(c1cccc(Br)c1F)N(CCN)C1CC1` (centres unmarked) [Compound 294, N′-[1-(3-bromo-2-fluoro-phenyl)-2-methyl-propyl]-N′-cyclopropyl-ethane-1,2-diamine TFA salt] had an IC50 of 0.01 µM.

In the case of `NCCN(C1CC1)C(c1cccc(Cl)c1F)C(F)F` (centres unmarked) [Compound 275, N1-(1-(3-chloro-2-fluorophenyl)-2,2-difluoroethyl)-N1-cyclopropylethane-1,2-diamine hydrochloride], the IC50 came out at 0.468 µM. On the same count and under the same terms, next, `CC(c1scc(Br)c1F)N(CCN)C1CC1` (centres unmarked) [Compound 297A, N′-[1-(4-bromo-3-fluoro-2-thienyl)ethyl]-N′-cyclopropyl-ethane-1,2-diamine TFA salt]: 0.081 µM. The same measure, in the same setting: for `NCCN(C1CC1)C(c1cccc(Br)c1F)C(F)(F)F` (centres unmarked) [Compound 261A, N′-[1-(3-bromo-2-fluoro-phenyl)-2,2,2-trifluoro-ethyl]-N′-cyclopropyl-ethane-1,2-diamine hydrochloride] the value was 0.033 µM; for `CC(c1cc(Cl)cs1)N(CCN)C1CC1` (centres unmarked) [Compound 279, N′-[1-(4-chloro-2-thienyl)ethyl]-N′-cyclopropyl-ethane-1,2-diamine hydrochloride], 0.23 µM.

The assay is the same for the next values; noted with them: first subset; protection index from area above curve over 24 h glutamate/NMDA insult; compounds added 30 min before; 10 μM, Group A also at lower concentrations.
Consider `NCCN(Cc1cccc(Cl)c1F)CC(F)F` [Compound 118, N1-(3-chloro-2-fluorobenzyl)-N1-(2,2-difluoroethyl)ethane-1,2-diamine], for which the “Biological Activity Rating” value is given as “C (With a protection index between 3.0 to 5.0, provides a significantly lower protection compared to compound P401 (10 μM) at 10 μM.)”. `NCCN(Cc1cccc(Cl)c1)CC1CC1` [Compound 134]: the “Biological Activity Rating” value was “B (With a protection index between 5.0 to 7.0, provides a comparable protection to compound P401 (10 μM) at 10 μM.)”. The same measure, in the same setting: for `NCCN(Cc1cccc(Cl)c1)C1CCC1` [Compound 123, N1-(3-chlorobenzyl)-N1-cyclobutylethane-1,2-diamine hydrochloride] the value was “B (With a protection index between 5.0 to 7.0, provides a comparable protection to compound P401 (10 μM) at 10 μM.)”; for `NCCN(Cc1cccc(Cl)c1F)CC1CC1` [Compound 153], “C (With a protection index between 3.0 to 5.0, provides a significantly lower protection compared to compound P401 (10 μM) at 10 μM.)”.

`CCN(CCN)Cc1c(F)ccc(Cl)c1F` [Compound 92]: the “Biological Activity Rating” value is reported as “A (With a protection index over 7.0, provides a significantly better protection over compound P401 (10 μM) at 10 μM.)”. The same measure, in the same setting: next, `CCN(CCN)Cc1cccc(Cl)c1F` [Compound 91]: “A (With a protection index over 7.0, provides a significantly better protection over compound P401 (10 μM) at 10 μM.)”; `CSCCN(CCN)Cc1cccc(Cl)c1` [Compound 126]: “B (With a protection index between 5.0 to 7.0, provides a comparable protection to compound P401 (10 μM) at 10 μM.)”; `NCCN(Cc1cccc(Cl)c1)CC1CCC1` [Compound 135]: “B (With a protection index between 5.0 to 7.0, provides a comparable protection to compound P401 (10 μM) at 10 μM.)”. With `CCN(CCN)Cc1cccc(Br)c1F` [Compound 175A], the “Biological Activity Rating” value is reported as “A (With a protection index over 7.0, provides a significantly better protection over compound P401 (10 μM) at 10 μM.)”. On the same count and under the same terms, next, `CCN(CCN)Cc1cc(F)cc(Cl)c1` [Compound 94]: “B (With a protection index between 5.0 to 7.0, provides a comparable protection to compound P401 (10 μM) at 10 μM.)”.

Staying with this assay, now noted: second subset; protection index from area above curve over 24 h glutamate/NMDA insult; compounds added 30 min before; 10 μM, Group A also at lower concentrations.
For the molecule `CC(c1cccc(Cl)c1F)N(CCN)C1CCCC1` (centres unmarked) [Compound 184, N1-(1-(3-chloro-2-fluorophenyl)ethyl)-N1-cyclopentylethane-1,2-diamine dihydrochloride], the “Biological Activity Rating” value is given as “A (With a protection index over 7.0, provides a significantly better protection over compound P401 (10 μM) at 10 μM.)”.

For the molecule `CC(c1cc(F)cc(F)c1Cl)N(CCN)C1CC1` (centres unmarked) [Compound 188, N′-[1-(2-chloro-3,5-difluoro-phenyl)ethyl]-N′-cyclopropyl-ethane-1,2-diamine hydrochloride], the “Biological Activity Rating” value is “A++ (With a protection index between 5.0 to 7.0, provides a comparable protection to compound P401 (10 μM) at 1.0 μM.)”. Still for that read-out and setting: next, `C=CCN(CCN)C(C)c1cccc(Cl)c1F` (centres unmarked) [Compound 172, N1-allyl-N1-(1-(3-chloro-2-fluorophenyl)ethyl)ethane-1,2-diamine hydrochloride]: “A++ (With a protection index between 5.0 to 7.0, provides a comparable protection to compound P401 (10 μM) at 1.0 μM.)”. With `CC(c1cccc(Cl)c1F)N(CCN)C1CC1` (single isomer, unassigned; (+)) [Compound 220A, (+)-N1-(1-(3-chloro-2-fluorophenyl)ethyl)-N1-cyclopropylethane-1,2-diamine], the “Biological Activity Rating” value was “A++ (With a protection index between 5.0 to 7.0, provides a comparable protection to compound P401 (10 μM) at 1.0 μM.)”.

In the case of `CCN(CCN)[C@@H](C)c1cccc(Cl)c1` [Compound 177, (S)—N1-(1-(3-chlorophenyl)ethyl)-N1-ethylethane-1,2-diamine dihydrochloride], the “Biological Activity Rating” value is reported as “A (With a protection index over 7.0, provides a significantly better protection over compound P401 (10 μM) at 10 μM.)”.

In the case of `CC(c1cccc(Cl)c1F)N(CCN)C1CC1` (single isomer, unassigned; (-)) [Compound 220B, (−)-N1-(1-(3-chloro-2-fluorophenyl)ethyl)-N1-cyclopropylethane-1,2-diamine], the “Biological Activity Rating” value is “A++++ (With a protection index between 5.0 to 7.0, provides a comparable protection to compound P401 (10 μM) at 0.1 μM.)”. Still for that read-out and setting: for `CC(c1cccc(Cl)c1F)N(CCN)C1CCC1` (centres unmarked) [Compound 180, N1-(cyclobutyl)-N1-(1-(3-chloro-2-fluorophen, l)ethyl)ethane-1,2-diamine hydrochloride] the value was “A++ (With a protection index between 5.0 to 7.0, provides a comparable protection to compound P401 (10 μM) at 1.0 μM.)”.

The assay is the same for the next values; noted with them: third subset; A++++ or above correlates with IC50; A++ and A+++ as defined in the source.
Regarding `CC(c1c(F)ccc(Cl)c1F)N(CCN)C1CC1.Cl` (centres unmarked) [Compound 187], the “Biological Activity Rating” value is on record as “A++”.

Regarding `N#Cc1cccc(CN(CCN)C2CC2)c1F` [Compound 219, 3-(((2-aminoethyl)(cyclopropyl)amino)methyl)-2-fluorobenzonitrile hydrochloride], the “Biological Activity Rating” value was “A+++”.

Turning to `CC(c1cccc(F)c1Cl)N(CCN)C1CC1` (centres unmarked) [Compound 246], the “Biological Activity Rating” value is “A+++”. For the molecule `NCCN(C1CC1)C(c1cccc(Cl)c1F)C(F)F` (centres unmarked) [Compound 275, N1-(1-(3-chloro-2-fluorophenyl)-2,2-difluoroethyl)-N1-cyclopropylethane-1,2-diamine hydrochloride], the “Biological Activity Rating” value was “A+++”.

As a reminder, the IC50 is the point on the concentration scale where inhibition reaches its midpoint.
